The record followed here is patent publication US8937076B2, “Crystalline form of entecavir, its preparation and the pharmaceutical composition and uses thereof” (Zhejiang Medicine Co., Ltd. Xinchang Pharaceutical Factory, priority 2007, dated 2015).

Molecules are shown by their SMILES.

A short description of this data set: Solubility at room temperature. It is filed as physicochemical.

For the molecule `C=C1[C@H](CO)[C@@H](O)C[C@@H]1n1cnc2c(=O)[nH]c(N)nc21` [crystalline form of entecavir], the “Solubility in N,N-dimethylformamide” value (N. N-dimethylformamide) is reported as “sparingly soluble”. Moreover, the “Solubility in dimethyl sulfoxide” value (dimethyl sulfoxide) is reported as “soluble”. For the same molecule, where the note is “ethanol”, the Solubility in ethanol result is “slightly soluble”. In addition, the Solubility in water result (water) is “insoluble”.
